In patent US8603966B2, “Amino acid-based compounds, their methods of use, and methods of screening” (The Administrators of the Tulane Educational Fund, priority 2009, dated 2013):
No end group written: not given here.

How the values were obtained:
[1] = test system: Chinese Hamster Ovary (CHO) cells; experiment: Cell penetration by laser scanning confocal fluorescence microscopy; type: cell-based; details: for Cell Penetrating Half-time: SD ±10 min
Procedure: (§1) Laser Scanning Confocal Fluorescence Microscopy: Some translocating peptides were synthesized and labeled with the fluorescent dye TAMRA on either their amino terminus (N-labeled) or on a C-terminal cysteine residue (C-labeled). Live Chinese Hamster Ovary (CHO) cells were used to assess the ability of the labeled peptides to translocate across living cell membrane into the cells without causing toxicity.
CHO cells were incubated with peptide that was labeled on a C-terminal cysteine residue with the red fluorescent dye TAMRA. Cells and labeled peptide were incubated for 10 minutes in minimal media at 37° C. Cells were then washed to remove labeled peptide from the solution. The minimal media was replaced and 1 μM NBD (7-nitrobenz-2-oxa-1,3-diazol-4-yl) labeled lyso-phosphatidylthanolamine was added to the cells to label the plasma membrane. Labeled peptide concentrations for the panels are: A) 0 μM, B) 2 μM, C) 5 μM, and D) 10 μM. The scale bar represents 50 μm.
Panels A-G of FIG. 6 show representative CFM images monitoring the translocation of a labeled peptide with SEQ ID NO. 04 (synthesized with all D-amino acids for the chiral amino acids) in 10 minute intervals. CHO cells were incubated with the TAMRA-labeled peptide in minimal media and monitored over time at 25° C. without washing. The incubation times for the panels are: A) 5 min., B) 15 min., C) 25 min., D) 35 min., E) 45 min., F) 55 min., and G) 65 min. […] The scale bar represents 50 μm.
(§2) In this experiment, the externally added labeled peptide has not been washed away so the solution itself is fluorescent due to added TAMRA-labeled peptide. The black silhouettes in Panel A show the location of cells; before labeled-peptide entry, there is no fluorescence inside the cells.
All labeled peptides tested are able to translocate across living cell membranes and carry the large polar dye molecule TAMRA with them into the cell. Cell penetration was assessed by measuring TAMRA intensity inside CHO cells during incubation with the peptides in Table 4 and comparing intensity inside the cells with the external solution. Incubations were done at either 25° C. or 37° C., at concentrations listed. The half-times for penetration were determined, as shown in Table 5; the half-times have standard deviations of ±10 min. Based on final intensities inside the cells, all labeled peptides tested have similar cell penetrating activity at concentrations tested and at the temperatures tested. Toxicity was determined using the same conditions (e.g., solution and temperature) and concentrations as the cell penetration experiments. Toxicity was assessed by imaging at least 100 cells and counting cells with altered cell morphology, loss of confluence, or loss of adherence to substrate. In some experiments, the non-membrane permeable DNA dye SYTOX green was used to assess membrane integrity. In most cases, no measurable increase in toxicity or membrane integrity over control samples was detectable; this is indicated by the <5% in Table 5.

[2] = High throughput screen: translocation into liposomes (free AMC production by entrapped chymotrypsin); details: labeled peptide:lipid 1:300; rate divided by rate in chymotrypsin solution without inhibitor and liposomes
Procedure: (§3) High throughput screening: For high throughput screening, 100 mM lipid bilayer vesicles were prepared by extrusion in the presence of 50 mM Tb^3+/citrate and 10 mg/mL chymotrypsin. The external Tb^3+/citrate and chymotrypsin were removed by gel filtration. To make the screening solution, 50 μM dipicolinic acid (DPA) and 1 μM α 1-antitrypsin were added to the external medium. The lipid composition was about 90% palmitoyloleoylphostadidylcholine (POPC) and about 10% palmitoyloleoyl phostadidylglycerol (POPG).
(§4) The combinatorial labeled peptide library was screened to identify and measure properties of translocation and leakage (e.g., pore-formation). Beads from the synthesis were exposed to longwave UV to cleave the peptide from the resin. The reaction added an amine group to the labeled peptide at the site of cleavage, yielding a Gln residue. Beads were then separated into individual wells of a multiwell plate and the peptides were extracted into 5 μl of dry dimethylsulfoxide overnight. This cleaved approximately 0.75 nmol of labeled peptide from each bead, about half of the total labeled peptide on the bead. A chymotrypsin cleavage site was incorporated into the labeled peptides' design (FIG. 1) and when hydrolysis occurs the AMC fluorophore is released. The spectra of the free AMC fluorophore is red-shifted as compared to that of the peptide-AMC conjugate (FIG. 2). When a labeled peptide translocates, the chymotrypsin inside the vesicle catalyzes the hydrolysis of the peptide bond contributed by the AMC moiety (FIG. 3B). Translocation was monitored by the rate of accumulation of free AMC. In the case of leakage, interaction of the lanthanide metal terbium III (Tb^3+) with the aromatic chelator dipiccolinic acid (DPA) creates a complex that is fluorescent at low μM concentrations (FIG. 3A). By entrapping Tb^3+ and chymotrypsin inside the liposomes and then adding dipiccolinic acid and a chymotrypsin inhibitor to the external medium, a visual reporter system for translocation with and without membrane leakage was created that can detect as little as 5 pmol of labeled peptide.
(§5) To screen for solubility, the labeled peptide DMSO solution was diluted and incubated for 30 minutes before adding the screening solution. Free-AMC fluorescence was monitored at 450 nm emission (350 nm excitation) for 30 minutes and then the wells were read at 460 nm emission (280 nm excitation) for Tb^3+/DPA complex formation. Wells with the highest free AMC accumulation and/or Tb^3+/DPA fluorescence were sent to the Michigan State University Protein Core Facility for sequencing.
(§6) The screen was performed at a labeled peptide to lipid ratio of 1:300. […] In FIG. 4, the oval labeled “Leakage” indicates labeled peptides that show mostly leakage with a minimum of the relative rate of free AMC production. The oval labeled “Translocation” indicates labeled peptides that show a higher relative rate of free AMC production with a minimum of leakage. Roughly 24,000 beads were screened at 1:300 labeled peptide:lipid, a sequence coverage space of 90%. The labeled peptides indicating the highest translocation and highest % leakage were identified by Edman sequencing from the beads.
(§7) Free-AMC fluorescence was monitored at 450 nm emission (350 nm excitation) for 30 minutes and then the wells were read at 460 nm emission (280 nm excitation) for Tb^3+/DPA complex formation. Percent leakage is the % of Tb^3+ released from lipid vesicles after 60 minutes, compared to a Triton-X 100 detergent-solubilized control (100% leakage). […] Free AMC was determined in real time by monitoring the fluorescence of free AMC after vesicle addition using a BioTek Synergy II fluorescence plate reader. The two assays were performed on the same samples.

[3] = High throughput screen: Tb3+/DPA leakage from liposomes; details: labeled peptide:lipid 1:300; % of Tb3+ released after 60 minutes vs Triton-X 100 solubilized control (100% leakage)
Procedure: as §3, §4, §5, §6, §7

[4] = test system: Chinese Hamster Ovary (CHO) cells; type: cell-based
From the text: as §1, §2
All labeled peptides tested are able to translocate across living cell membranes and carry the large polar dye molecule TAMRA with them into the cell. Cell penetration was assessed by measuring TAMRA intensity inside CHO cells during incubation with the peptides in Table 4 and comparing intensity inside the cells with the external solution. Incubations were done at either 25° C. or 37° C., at concentrations listed. The half-times for penetration were determined, as shown in Table 5; the half-times have standard deviations of ±10 min. […] Toxicity was determined using the same conditions (e.g., solution and temperature) and concentrations as the cell penetration experiments. […]

## Arg-Arg-Ile-Leu-Leu-Gln-Leu-Leu-Arg-Gly-Gln-Phe (RRILLQLLRGQF; not fully specified (C-terminus); printed as Arg-Arg-Ile-Leu-Leu-Gln-Leu-Leu-Arg-Gly-Gln-Phe) [SEQ ID NO: 10 (C-labeled), peptide labeled with the dye TAMRA on a C-terminal cysteine]
[1]; 25° C., 1.7-10 μM
  Cell Penetrating Half-time: 15 min

## Arg-Arg-Ile-Leu-Leu-Gln-Leu-Leu-Leu-Gly-Gln-Phe (RRILLQLLLGQF; not fully specified (C-terminus); printed as Arg-Arg-Ile-Leu-Leu-Gln-Leu-Leu-Leu-Gly-Gln-Phe) [SEQ ID NO: 15 (C-labeled), peptide labeled with the dye TAMRA on a C-terminal cysteine]
[1]; 37° C., 1.7-5 μM
  Cell Penetrating Half-time: <30 min

## Arg-Lys-Gly-Leu-Leu-Gln-Leu-Leu-Leu-Gly-Gln-Phe (RKGLLQLLLGQF; not fully specified (C-terminus); printed as Arg-Lys-Gly-Leu-Leu-Gln-Leu-Leu-Leu-Gly-Gln-Phe) [SEQ ID NO: 18 (C- labeled), peptide labeled with the dye TAMRA on a C-terminal cysteine]
[1]; 37° C., 1.7-5 μM
  Cell Penetrating Half-time: <30 min

## PKILLFKLLGQF [SEQ ID NO: 12]
[2]
  Relative Rate of Free AMC Production: 1.7
[3]
  % Leakage: 1.6%

## PKQLLRLLLGQF [SEQ ID NO: 20]
[2]
  Relative Rate of Free AMC Production: 0.4
[3]
  % Leakage: 90%

## PLGYLFLLRGQF [SEQ ID NO: 05]
[2]
  Relative Rate of Free AMC Production: 1.9
[3]
  % Leakage: 6.0%

## PLILLRLLRGQF [SEQ ID NO: 03]
[2]
  Relative Rate of Free AMC Production: 2.1
[3]
  % Leakage: 1.7%

## PLIYPFLRLGQF [SEQ ID NO: 09]
[2]
  Relative Rate of Free AMC Production: 1.7
[3]
  % Leakage: −0.2%

## PLRLLRLLRGQF [SEQ ID NO: 11]
[2]
  Relative Rate of Free AMC Production: 2.0
[3]
  % Leakage: 5.2%

## PLRLRFLLRGQF [SEQ ID NO: 07]
[2]
  Relative Rate of Free AMC Production: 1.6
[3]
  % Leakage: −4.5%

## PRILLRLLLGQF [SEQ ID NO: 16]
[2]
  Relative Rate of Free AMC Production: 1.0
[3]
  % Leakage: 89%

## PRIYLRLLLGQF [SEQ ID NO: 14]
[2]
  Relative Rate of Free AMC Production: 1.1
[3]
  % Leakage: 82%

## PRKLLQLLLGQF [SEQ ID NO: 13]
[2]
  Relative Rate of Free AMC Production: 0.6
[3]
  % Leakage: 86%

## Pro-Leu-Ile-Leu-Leu-Arg-Leu-Leu-Arg-Gly-Gln-Phe (PLILLRLLRGQF; not fully specified (C-terminus); printed as Pro-Leu-Ile-Leu-Leu-Arg-Leu-Leu-Arg-Gly-Gln-Phe) [SEQ ID NO: 03 (C-labeled), peptide labeled with the dye TAMRA on a C-terminal cysteine]
[1]; 37° C., 1.7-5 μM
  Cell Penetrating Half-time: <30 min

## Pro-Leu-Ile-Tyr-Leu-Arg-Leu-Leu-Arg-Gly-Gln-Phe
[4]
  toxicity (shape and coherence of the cells): toxicity is minimal
[1]; FIG. 6, 25° C., minimal media, without washing
  half-time for cell entry: 20 to 30 min
[1]; FIG. 6, 25° C., without washing
  time at which cell penetration occurs: within a few minutes

## Pro-Leu-Ile-Tyr-Leu-Arg-Leu-Leu-Arg-Gly-Gln-Phe [SEQ ID NO: 04 (C-labeled)]
[1]; 37° C., 1.7-10 μM
  Cell Penetrating Half-time: 20 min

## Pro-Leu-Ile-Tyr-Leu-Arg-Leu-Leu-Arg-Gly-Gln-Phe [SEQ ID NO: 04]
[2]
  Relative Rate of Free AMC Production: 2.3
[3]
  % Leakage: 2.8%

## RKGLLQLLLGQF [SEQ ID NO: 18]
[2]
  Relative Rate of Free AMC Production: 0.3
[3]
  % Leakage: 92%

## RKILLRLLRGQF [SEQ ID NO: 02]
[2]
  Relative Rate of Free AMC Production: 1.6
[3]
  % Leakage: −3.0%

## RKRLLQLLLGQF [SEQ ID NO: 21]
[2]
  Relative Rate of Free AMC Production: 0.7
[3]
  % Leakage: 84%

## RLILLFRRLGQF [SEQ ID NO: 06]
[2]
  Relative Rate of Free AMC Production: 2.1
[3]
  % Leakage: 7.2%

## RLILRQLLLGQF [SEQ ID NO: 19]
[2]
  Relative Rate of Free AMC Production: 1.6
[3]
  % Leakage: 102%

## RLILRQLLRGQF [SEQ ID NO: 17]
[2]
  Relative Rate of Free AMC Production: 1.6
[3]
  % Leakage: 115%

## RLIRLFLLRGQF [SEQ ID NO: 08]
[2]
  Relative Rate of Free AMC Production: 2.1
[3]
  % Leakage: 5.0%

## RLIYLRLLRGQF [SEQ ID NO: 01]
[2]
  Relative Rate of Free AMC Production: 3.4
[3]
  % Leakage: 24%

## RRILLQLLLGQF [SEQ ID NO: 15]
[2]
  Relative Rate of Free AMC Production: 0.0
[3]
  % Leakage: 105%

## RRILLQLLRGQF [SEQ ID NO: 10]
[2]
  Relative Rate of Free AMC Production: 2.3
[3]
  % Leakage: 26%
